Experiments:
JAK2 = biological target: T1, JAK2 (Homo sapiens, UniProt O60674); test: JAK2 microfluidic kinase assay (Caliper EZ Reader II, FAM labeled peptide substrate); format: biochemical
T1 construct: purchased Carna Biosciences
Method in brief: (§1)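 3-fold serial dilutions, top 5 μM, 1% DMSO final; 10 min preincubation with enzyme, RT. Buffer: 50 mM HEPES, 0.01% Brij35, 10 mM MgCl2, 2 mM DTT. Enzyme batch tuned to 10% peptide conversion. EDTA stop, mobility-shift readout, IC50 fit.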

[1] = Liver microsomes study, Phase I stability (RLM); format: in vitro ADME, rat; details: pH 7.4; rat liver microsomes 0.5 mg/mL, 1 μM test article; read-out: RLM Clint
Method: (§2) Commercially available liver microsomes (MsLM vendor: XENOTECH; RLM, DLM, MkL, HLM vendor: Corning) were used for study the Phase I stability of test articles. […] The reaction was initiated by addition of 80 μL of the NADPH regenerating system to 320 µL of each incubation mixture per time point. […] The 0-minute samples were prepared by addition of an 80 μL aliquot of each incubation mixture to 400 μL quench reagent to precipitate proteins. And then a 20 μL aliquot of the NADPH regenerating system was added. At 10, 30, and 90 minutes, the reaction will be stopped by the addition of cold acetonitrile solution containing tolbutamide and propanolol served as internal standard. The samples taken at all time points were centrifuged at 4000×g for 15 minutes. 80 μL of supernatant are taken into 96-well assay plates pre-added with 160 μL ultrapure water, and then analyzed by LC/MS/MS(Shimadzu LC30AD & API4000/API5000)). Concentrations of test articles, control compounds in the samples were determined by using LC/MS/MS) method. Plotting of the chromatograms and peak area integrations are carried out by Analyst (AB Sciex).
(§3) In the determination of the in vitro elimination constant, ke, of the control compounds, the analyte/internal standard peak area ratios will be converted to percentage remaining (% Remaining) with the following equation: […]
(§4) The slope was measured by the natural logarithm of the percentage of the residual compound and time, T½ and CLint were calculated according to the following formulas, V/M was equal to the 1/concentration of protein.

JAK1 = biological target: T2, JAK1 (Homo sapiens, UniProt P23458); test: JAK1 microfluidic kinase assay (Caliper EZ Reader II, FAM labeled peptide substrate); format: biochemical; details: IC50 JAK1 (5 nM) (1 m MATP), JAK1 5 nM, 1 mM ATP
T2 construct: purchased Carna Biosciences
Method in brief: as §1

[2] = Liver microsomes study, Phase I stability (HLM); format: in vitro ADME, human; details: pH 7.4; human liver microsomes 0.5 mg/mL, 1 μM test article; read-out: HLM Clint
Method: as §2, §3, §4

TYK2 = biological target: T3, TYK2 (Homo sapiens, UniProt P29597); test: TYK2 microfluidic kinase assay (Caliper EZ Reader II, FAM labeled peptide substrate); format: biochemical
T3 construct: purchased Carna Biosciences
Method in brief: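 3-fold series, top 5 μM, 1% DMSO; 10 min preincubation with enzyme, RT. Buffer 50 mM HEPES/10 mM MgCl2/2 mM DTT/0.01% Brij35. Run times JAK1 120 min, JAK2 20, JAK2V617F 30, TYK2 10. Stopped with 50 mM EDTA; IC50 from % inhibition vs no-enzyme and DMSO controls.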

JAK2V617F = biological target: T4, JAK2V617F (Homo sapiens, UniProt O60674, V617F); test: JAK2V617F microfluidic kinase assay (Caliper EZ Reader II, FAM labeled peptide substrate); format: biochemical; details: JAK2V617F 2.5 nM, 1 mM ATP
T4 construct: purchased Carna Biosciences
Method in brief: as §1

[3] = IC50 JAK2 ([…]) (1 mM ATP), 1 mM ATP
[4] = IC50 TYK2 ([…]) (1 mM ATP), TYK2 […], 1 mM ATP
[5] = IC50 JAK2 ([…]) (Km ATP), Km ATP
[6] = IC50 TYK2 (10 nM) (Km ATP), TYK2 10 nM, Km ATP

T1 sequence (O60674 whole entry): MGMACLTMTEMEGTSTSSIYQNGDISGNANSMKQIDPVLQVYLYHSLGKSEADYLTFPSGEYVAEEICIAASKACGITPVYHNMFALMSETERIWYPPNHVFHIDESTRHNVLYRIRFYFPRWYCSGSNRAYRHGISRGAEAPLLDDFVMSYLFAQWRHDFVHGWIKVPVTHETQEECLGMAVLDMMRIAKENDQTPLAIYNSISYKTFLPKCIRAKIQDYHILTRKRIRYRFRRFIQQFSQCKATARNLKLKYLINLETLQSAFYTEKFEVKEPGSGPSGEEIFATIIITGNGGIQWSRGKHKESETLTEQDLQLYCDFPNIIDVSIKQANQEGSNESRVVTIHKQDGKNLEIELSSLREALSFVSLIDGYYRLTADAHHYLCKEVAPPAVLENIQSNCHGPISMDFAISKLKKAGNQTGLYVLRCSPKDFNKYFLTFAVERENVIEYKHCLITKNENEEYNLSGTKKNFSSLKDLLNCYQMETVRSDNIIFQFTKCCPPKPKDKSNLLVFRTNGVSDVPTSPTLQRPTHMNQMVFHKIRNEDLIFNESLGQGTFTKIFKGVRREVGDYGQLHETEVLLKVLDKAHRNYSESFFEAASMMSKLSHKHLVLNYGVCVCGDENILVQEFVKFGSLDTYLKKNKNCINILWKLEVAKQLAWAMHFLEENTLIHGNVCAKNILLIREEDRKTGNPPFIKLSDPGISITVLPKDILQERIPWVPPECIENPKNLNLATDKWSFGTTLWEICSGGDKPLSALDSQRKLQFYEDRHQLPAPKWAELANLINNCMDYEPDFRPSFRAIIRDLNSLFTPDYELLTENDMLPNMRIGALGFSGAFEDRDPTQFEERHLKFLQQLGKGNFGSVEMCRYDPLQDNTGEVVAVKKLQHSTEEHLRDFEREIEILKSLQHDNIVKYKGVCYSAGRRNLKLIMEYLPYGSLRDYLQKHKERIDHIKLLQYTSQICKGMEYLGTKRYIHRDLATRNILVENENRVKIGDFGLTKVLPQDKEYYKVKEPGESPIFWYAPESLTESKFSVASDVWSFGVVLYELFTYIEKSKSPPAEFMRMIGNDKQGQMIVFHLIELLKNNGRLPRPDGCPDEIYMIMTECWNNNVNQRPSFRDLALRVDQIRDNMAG
T4 sequence (O60674 whole entry V617F): as the sequence (O60674 whole entry) above, with V617F counted along it
T3 sequence (P29597 whole entry): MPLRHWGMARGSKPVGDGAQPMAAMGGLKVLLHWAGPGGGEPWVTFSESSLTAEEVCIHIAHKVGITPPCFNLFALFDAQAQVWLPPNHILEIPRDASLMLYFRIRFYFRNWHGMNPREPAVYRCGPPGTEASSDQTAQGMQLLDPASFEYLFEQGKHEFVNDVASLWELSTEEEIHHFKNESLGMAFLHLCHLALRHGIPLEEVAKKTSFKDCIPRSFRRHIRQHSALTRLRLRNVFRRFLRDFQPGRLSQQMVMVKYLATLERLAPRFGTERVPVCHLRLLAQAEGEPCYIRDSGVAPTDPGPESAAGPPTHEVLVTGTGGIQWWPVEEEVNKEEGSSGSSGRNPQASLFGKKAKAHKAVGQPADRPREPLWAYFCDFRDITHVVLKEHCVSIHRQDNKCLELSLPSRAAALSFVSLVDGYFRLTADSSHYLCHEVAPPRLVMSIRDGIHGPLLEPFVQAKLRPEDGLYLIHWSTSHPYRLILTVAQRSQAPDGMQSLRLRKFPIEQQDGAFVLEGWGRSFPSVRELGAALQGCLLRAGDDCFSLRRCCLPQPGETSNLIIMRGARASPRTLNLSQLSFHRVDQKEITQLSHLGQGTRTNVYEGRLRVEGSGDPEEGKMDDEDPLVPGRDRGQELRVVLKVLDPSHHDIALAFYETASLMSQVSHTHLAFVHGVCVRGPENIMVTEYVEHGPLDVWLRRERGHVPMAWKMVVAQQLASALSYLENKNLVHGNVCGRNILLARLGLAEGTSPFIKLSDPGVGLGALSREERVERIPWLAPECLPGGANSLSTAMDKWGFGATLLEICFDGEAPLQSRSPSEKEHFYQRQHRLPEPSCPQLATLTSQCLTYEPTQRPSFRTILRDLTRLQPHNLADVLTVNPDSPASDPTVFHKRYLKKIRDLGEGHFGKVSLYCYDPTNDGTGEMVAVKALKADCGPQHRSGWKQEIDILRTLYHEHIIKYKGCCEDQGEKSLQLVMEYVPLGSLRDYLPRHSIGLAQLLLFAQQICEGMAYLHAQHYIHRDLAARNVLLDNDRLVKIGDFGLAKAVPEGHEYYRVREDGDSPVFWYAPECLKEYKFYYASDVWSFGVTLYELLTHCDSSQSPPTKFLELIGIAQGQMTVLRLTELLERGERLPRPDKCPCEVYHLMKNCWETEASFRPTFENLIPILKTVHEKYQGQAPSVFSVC
T2 sequence (P23458 whole entry): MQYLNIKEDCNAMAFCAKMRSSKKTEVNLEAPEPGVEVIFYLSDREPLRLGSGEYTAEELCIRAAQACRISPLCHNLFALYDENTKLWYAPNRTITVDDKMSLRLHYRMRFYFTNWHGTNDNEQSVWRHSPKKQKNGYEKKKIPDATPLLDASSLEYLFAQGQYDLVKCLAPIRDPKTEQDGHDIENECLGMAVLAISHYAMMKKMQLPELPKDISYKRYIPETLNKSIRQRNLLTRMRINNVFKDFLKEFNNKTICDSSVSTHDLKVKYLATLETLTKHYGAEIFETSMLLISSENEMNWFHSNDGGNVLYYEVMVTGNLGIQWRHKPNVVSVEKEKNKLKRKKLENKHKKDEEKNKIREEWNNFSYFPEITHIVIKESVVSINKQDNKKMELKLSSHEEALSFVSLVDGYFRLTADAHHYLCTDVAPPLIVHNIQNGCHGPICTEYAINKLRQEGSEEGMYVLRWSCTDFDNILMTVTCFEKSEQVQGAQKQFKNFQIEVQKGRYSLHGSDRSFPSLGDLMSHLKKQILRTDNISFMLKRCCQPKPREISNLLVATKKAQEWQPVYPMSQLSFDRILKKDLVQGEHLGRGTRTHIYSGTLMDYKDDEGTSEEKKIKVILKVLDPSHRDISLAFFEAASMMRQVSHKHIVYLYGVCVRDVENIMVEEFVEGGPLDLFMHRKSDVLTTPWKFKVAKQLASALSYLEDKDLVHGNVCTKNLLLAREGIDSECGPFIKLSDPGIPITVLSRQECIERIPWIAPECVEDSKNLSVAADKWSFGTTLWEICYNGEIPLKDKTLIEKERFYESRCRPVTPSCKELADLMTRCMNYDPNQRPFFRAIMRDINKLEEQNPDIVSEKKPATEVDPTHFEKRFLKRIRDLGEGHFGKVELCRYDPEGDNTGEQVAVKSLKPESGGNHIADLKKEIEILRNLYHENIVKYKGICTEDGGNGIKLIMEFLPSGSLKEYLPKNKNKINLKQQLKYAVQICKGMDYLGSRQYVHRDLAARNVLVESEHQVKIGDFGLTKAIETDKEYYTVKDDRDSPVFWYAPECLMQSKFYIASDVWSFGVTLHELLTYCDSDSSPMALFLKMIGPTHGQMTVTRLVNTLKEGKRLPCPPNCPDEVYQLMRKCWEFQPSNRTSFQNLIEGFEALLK

| IC50 (JAK2; [3]) | microsomal CLint at 1 μM [1] | IC50 (JAK1) | microsomal CLint at 1 μM [2] | IC50 (TYK2; [4]) | IC50 (JAK2; [5]) | IC50 (JAK2V617F) | IC50 (TYK2; [6]) | SMILES |
| --- | --- | --- | --- | --- | --- | --- | --- | --- |
| 0.86 nM | 115 µL/min/mg | 1.28 nM | 45.7 µL/min/mg | 1.33 nM |  |  |  | Cc1cnc(Nc2cnn(C3CCN(C)CC3)c2)nc1-c1ccc(C(=O)N[C@H](C#N)C(C)C)cc1 [Example 174, (S)—N-(1-cyano-2-methylpropyl)-4-(5-methyl-2-((1-(1-methylpiperidin-4-yl)-1H-pyrazol-4-yl)amino)pyrimidin-4-yl)benzamide] |
| 0.59 nM | 91.8 µL/min/mg | 0.85 nM | 23.1 µL/min/mg | 1.04 nM |  |  |  | Cc1cnc(Nc2cnn(C3CCN(C)CC3)c2)nc1-c1ccc(C(=O)N[C@H](C#N)C2CC2)cc1 [Example 180, (S)—N-(cyano(cyclopropyl)methyl)-4-(5-methyl-2-((1-(1-methylpiperidin-4-yl)-1H-pyrazol-4-yl)amino)pyrimidin-4-yl)benzamide] |
| 2.17 nM | 38.4 µL/min/mg | 14.9 nM | 11.1 µL/min/mg |  | 0.25 nM | 23.7 nM |  | Cc1cnc(Nc2cnn(C3CC(C#N)C3)c2)nc1-c1ccc(C(=O)NCC#N)cc1 (centres unmarked) [Example 106, 4-(2-((1-(3-Cyanocyclobutyl)-1H-pyrazol-4-yl)amino)-5-methylpyrimidin-4-yl)-N-(cyanomethyl)benzamide] |
| 0.88 nM | 124 µL/min/mg | 23.9 nM | 142 µL/min/mg |  |  | 28.2 nM |  | Cc1cnc(Nc2cnn(C3CCN(C(=O)C4CC4)CC3)c2)nc1-c1ccc(C(=O)NCC2(C#N)CC2)cc1 [Example 158, N-((1-cyanocyclopropyl)methyl)-4-(2-((1-(1-(cyclopropanecarbonyl)piperidin-4-yl)-1H-pyrazol-4-yl)amino)-5-methylpyrimidin-4-yl)benzamide] |
|  | 2.58 µL/min/mg | 75.4 nM | 6.6 µL/min/mg |  | 8.4 nM | 669 nM |  | COCCNC(=O)c1ccc(-c2nc(Nc3cnn(C)c3)ncc2C)cc1 [Example 6, N-(2-Methoxyethyl)-4-(5-methyl-2-((1-methyl-1H-pyrazol-4-yl)amino)pyrimidin-4-yl)benzamide] |
| 15.6 nM | 161 µL/min/mg | 10.4 nM | 7.27 µL/min/mg | 22.1 nM |  |  |  | Cc1cnc(Nc2cnn(C(C)C(F)(F)F)c2)nc1-c1ccc(C(=O)N[C@@H](C)C#N)cc1 (stereo partly drawn) [Example 166, N—((S)-1-Cyanoethyl)-4-(5-methyl-2-((1-(1,1,1-trifluoropropan-2-yl)-1H-pyrazol-4-yl)amino)pyrimidin-4-yl)benzamide] |
| 0.4 nM | 599 µL/min/mg | 15.4 nM | 1430 µL/min/mg |  |  | 17.3 nM |  | Cc1cnc(Nc2cnn(C3CCN(C(=O)[C@H]4CC4(C)C)CC3)c2)nc1-c1ccc(C(=O)NCC#N)cc1 [Example 143, (S)—N-(cyanomethyl)-4-(2-((1-(1-(2,2-dimethylcyclopropanecarbonyl)piperidin-4-yl)-1H-pyrazol-4-yl)amino)-5-methylpyrimidin-4-yl)benzamide] |
| 50.5 nM | 40.7 µL/min/mg |  | 20.7 µL/min/mg |  | 0.54 nM |  | 28.8 nM | Cc1cnc(Nc2cnn(C3CCOCC3)c2)nc1-c1ccc(C(=O)NCC2(C#N)CC2)cc1 [Example 37, N-((1-cyanocyclopropyl)methyl)-4-(5-methyl-2-((1-(tetrahydro-2H-pyran-4-yl)-1H-pyrazol-4-yl)amino)pyrimidin-4-yl)benzamide] |
| 79 nM | 76.4 µL/min/mg | 6.43 nM | 49.1 µL/min/mg |  |  | 119 nM |  | Cc1cnc(Nc2cnn(C(C)C(F)(F)F)c2)nc1-c1ccc(C(=O)NCC#N)cc1 (centres unmarked) [Example 112, N-(cyanomethyl)-4-(5-methyl-2-((1-(1,1,1-trifluoropropan-2-yl)-1H-pyrazol-4-yl)amino)pyrimidin-4-yl)benzamide] |
|  | 259 µL/min/mg | 34.4 nM | 268 µL/min/mg | 74.4 nM |  | 8.15 nM |  | Cc1cnc(Nc2cnn(C3C[C@@H](C)O[C@@H](C)C3)c2)nc1-c1ccc(C(=O)N[C@@H](C)C#N)cc1 (stereo partly drawn) [Example 73, N—((S)-1-cyanoethyl)-4-(2-((1-(cis-2,6-dimethyltetrahydro-2H-pyran-4-yl)-1H-pyrazol-4-yl)amino)-5-methylpyrimidin-4-yl)benzamide] |
|  | 19.2 µL/min/mg | 75.1 nM | 2 µL/min/mg |  | 4.5 nM | 362 nM |  | Cc1cnc(Nc2cnn(C)c2)nc1-c1ccc(C(=O)N[C@H](C)C#N)cc1 [Example 101, (R)—N-(1-cyanoethyl)-4-(5-methyl-2-((1-methyl-1H-pyrazol-4-yl)amino)pyrimidin-4-yl)benzamide] |
| 70.4 nM | 110 µL/min/mg |  | 16.9 µL/min/mg |  | 0.73 nM |  | 17.2 nM | Cc1cnc(Nc2cnn(C3CC3)c2)nc1-c1ccc(C(=O)NC2(C#N)CC2)cc1 [Example 160, N-(1-cyanocyclopropyl)-4-(2-((1-cyclopropyl-1H-pyrazol-4-yl)amino)-5-methylpyrimidin-4-yl)benzamide] |
| 155 nM | 628 µL/min/mg | 257 nM | 9.1 µL/min/mg |  | 6.4 nM | 341 nM |  | Cc1cnc(Nc2cnn(C3CC3)c2)nc1-c1ccc(C(=O)N2CC(C#N)C2)c(F)c1 [Example 140, 1-(4-(2-((1-Cyclopropyl-1H-pyrazol-4-yl)amino)-5-methylpyrimidin-4-yl)-2-fluorobenzoyl)azetidine-3-carbonitrile] |
|  | 16.9 µL/min/mg | 11.3 nM | 2.39 µL/min/mg | 218 nM |  | 147 nM |  | C[C@H](C#N)NC(=O)c1ccc(-c2nc(Nc3cnn(C)c3)ncc2Cl)cc1 [Example 97, (R)-4-(5-Chloro-2-((1-methyl-1H-pyrazol-4-yl)amino)pyrimidin-4-yl)-N-(1-cyanoethyl)benzamide] |
| < 0.25 nM | 85.9 µL/min/mg | 14.9 nM | 96 µL/min/mg |  |  | 0.67 nM |  | Cc1cnc(Nc2cnn(C3CCN(C(=O)C4(F)CC4)CC3)c2)nc1-c1ccc(C(=O)NCC#N)cc1 [Example 152, N-(cyanomethyl)-4-(2-((1-(1-(1-fluorocyclopropanecarbonyl)piperidin-4-yl)-1H-pyrazol-4-yl)amino)-5-methylpyrimidin-4-yl)benzamide] |
| < 0.25 nM | 51.9 µL/min/mg | 8.65 nM | 180 µL/min/mg | 0.58 nM |  |  |  | CC[C@@H](C#N)NC(=O)c1ccc(-c2nc(Nc3cnn(C4CC(C)(C)OC(C)(C)C4)c3)ncc2Cl)cc1 [Example 182, (S)-4-(5-Chloro-2-((1-(2,2,6,6-tetramethyltetrahydro-2H-pyran-4-yl)-1H-pyrazol-4-yl)amino)pyrimidin-4-yl)-N-(1-cyanopropyl)benzamide] |
| 0.69 nM | 54.9 µL/min/mg |  | 68.4 µL/min/mg |  |  |  | 12 nM | Cc1cnc(Nc2cnn(C3CCN(C(=O)C4CC4)CC3)c2)nc1-c1ccc(C(=O)N[C@@H](C)C#N)cc1 [Example 163, (S)—N-(1-cyanoethyl)-4-(2-((1-(1-(cyclopropanecarbonyl)piperidin-4-yl)-1H-pyrazol-4-yl)amino)-5-methylpyrimidin-4-yl)benzamide] |

Source: patent US12595253B2, “Benzamides of pyrazolylamino-pyrimidinyl derivatives, and compositions and methods thereof” (LYNK PHARMACEUTICALS CO. LTD., priority 2019, dated 2026)
